Experimental findings from PubChem BioAssay (NCI) are described below.

Some test systems named below: CAKI-1 renal; EKVX NSCLC; HCC-2998 colon; HT29 colon; MCF7 breast; PC-3 prostate; SF-295 CNS; SK-MEL-28 melanoma; SN12C renal; SNB-75 CNS; UO-31 renal; NCI/ADR-RES ovarian.
Test in all cases: DTP human tumour cell line panel, 48 h

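Dose response: 5 concentrations. Exposure: 48 h. Format: 96-well plates. Endpoint: linear interpolation; highest concentration if not reached. TGI denotes the concentration required for complete inhibition of growth.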

On to `N=C(N)C1CN(CCc2cnc[nH]2)C(=O)NC1=O` (stereo unspecified), for which the concentration for total growth inhibition (TGI) in the assay with CAKI-1 renal, in the assay on EKVX NSCLC, in the assay with HCC-2998 colon, in the assay on HT29 colon, in the assay on MCF7 breast and in the assay on PC-3 prostate was greater than 100 µM throughout. Besides, the TGI with SF-295 CNS, with SK-MEL-28 melanoma, in the assay on SN12C renal, in the assay on SNB-75 CNS and in the assay with UO-31 renal was greater than 100 µM each time.

Take `CSc1ccccc1P(c1ccccc1SC)c1ccccc1SC`: the concentration for total growth inhibition (TGI) in the assay on CAKI-1 renal, in the assay with EKVX NSCLC, in the assay with MCF7 breast, in the assay with NCI/ADR-RES ovarian, in the assay on SF-295 CNS and in the assay on SK-MEL-28 melanoma was greater than 100 µM in each case. In addition, the TGI in the assay with SN12C renal and in the assay on UO-31 renal was greater than 100 µM in each case.

As to `Cc1cccc2[nH]c3cc(O)cc(O)c3c(=O)c12`, the total growth inhibition concentration (TGI) in the assay on CAKI-1 renal, in the assay on HT29 colon, in the assay on NCI/ADR-RES ovarian, with PC-3 prostate, with SF-295 CNS and in the assay on SK-MEL-28 melanoma was greater than 10 µM throughout. Also, the total growth inhibition concentration (TGI) in the assay on SN12C renal, with SNB-75 CNS and in the assay with UO-31 renal was greater than 10 µM throughout.

With `CC1(C)OCC2(CO1)CSCCCSCC1(COC(C)(C)OC1)CSCCCSC2`, the TGI with EKVX NSCLC, with HCC-2998 colon, in the assay with HT29 colon, in the assay on NCI/ADR-RES ovarian, with PC-3 prostate and in the assay on SF-295 CNS was greater than 100 µM throughout. Moreover, the TGI in the assay on SK-MEL-28 melanoma, with SN12C renal, in the assay with SNB-75 CNS and in the assay on UO-31 renal was greater than 100 µM in each case.

On to `NC(=O)c1cc(-c2ccc(-n3ccnc3)cc2)n[nH]c1=O`, for which the TGI with CAKI-1 renal, with EKVX NSCLC, in the assay on HCC-2998 colon, in the assay on MCF7 breast, with PC-3 prostate and with SK-MEL-28 melanoma was greater than 100 µM each time. For the same compound, the total growth inhibition concentration (TGI) in the assay on SN12C renal, in the assay on SNB-75 CNS and with UO-31 renal was greater than 100 µM each time.

With `C=C[C@@]1(C)CCC2(O)C(CCC3C2(C)CCC[C@@]3(C)COC(=O)CC(=O)OC)C1` (stereo partly specified), the TGI with CAKI-1 renal was greater than 100 µM; in the assay on HCC-2998 colon, greater than 100 µM; with HT29 colon it was 33.2 µM; with SK-MEL-28 melanoma, 30.9 µM; in the assay on SN12C renal it was 38.2 µM; in the assay with SNB-75 CNS, 48.4 µM. Besides, in the assay with UO-31 renal, the TGI was greater than 100 µM.

Consider `C[C@]12CCC3c4ccc(O)cc4CC[C@H]3C1CC(=O)N(N)C2=O` (stereo partly specified), for which the TGI with CAKI-1 renal, with EKVX NSCLC, in the assay on HCC-2998 colon, in the assay on HT29 colon, with MCF7 breast and in the assay with PC-3 prostate was greater than 100 µM each time. The total growth inhibition concentration (TGI) in the assay with SF-295 CNS, in the assay with SK-MEL-28 melanoma, with SN12C renal, in the assay on SNB-75 CNS and in the assay with UO-31 renal was greater than 100 µM throughout.

Take `CC(NC(=O)C(OC(=O)C(C)NC(=O)OC(C)(C)C)C(C)C)C(=O)OC(C(=O)O)C(C)C` (stereo unspecified): the concentration for total growth inhibition (TGI) in the assay with CAKI-1 renal, with EKVX NSCLC, with HCC-2998 colon, with HT29 colon, in the assay on NCI/ADR-RES ovarian and in the assay with PC-3 prostate was greater than 100 µM each time. For the same compound, the total growth inhibition concentration (TGI) in the assay on SF-295 CNS, in the assay with SK-MEL-28 melanoma, with SN12C renal, with SNB-75 CNS and in the assay on UO-31 renal was greater than 100 µM in each case.

Take `O=C1c2cccc3cccc(c23)C(=O)N1CCCNCCCCNCCCN1C(=O)c2cccc3cccc(c23)C1=O`: the TGI amounted to 5.65 µM in the assay with CAKI-1 renal; 3.28 µM in the assay with EKVX NSCLC; 0.568 µM with HCC-2998 colon; 1.27 µM in the assay on HT29 colon; 32.3 µM in the assay with NCI/ADR-RES ovarian; 1.05 µM with PC-3 prostate. In addition, the total growth inhibition concentration (TGI) in the assay on SF-295 CNS came out at 3.4 µM; with SK-MEL-28 melanoma, 0.938 µM; in the assay with SN12C renal, 2.37 µM; in the assay with SNB-75 CNS, 1.01 µM; in the assay on UO-31 renal, 5.51 µM.

In the case of `COc1ccc(-c2cc(-c3ccc(Cl)cc3)n(C3OC(CO)C(O)C(O)C3O)c(=S)c2C#N)cc1` (stereo unspecified), the TGI in the assay with HCC-2998 colon, in the assay with HT29 colon, in the assay with PC-3 prostate, in the assay with SF-295 CNS, in the assay with SK-MEL-28 melanoma and in the assay on SN12C renal was greater than 100 µM in each case. The TGI in the assay with SNB-75 CNS and in the assay on UO-31 renal was greater than 100 µM each time.

As to `COc1cccc(/C(CC(O)(C(F)(F)F)C(F)(F)F)=N\N(C)C)c1`, the TGI in the assay on CAKI-1 renal, in the assay on EKVX NSCLC, in the assay with HCC-2998 colon, in the assay on HT29 colon, in the assay on NCI/ADR-RES ovarian and in the assay with PC-3 prostate was greater than 100 µM in each case. The concentration for total growth inhibition (TGI) in the assay on SF-295 CNS, in the assay on SK-MEL-28 melanoma, with SN12C renal, in the assay on SNB-75 CNS and in the assay with UO-31 renal was greater than 100 µM each time.

In general, TGI refers to the concentration at which net growth stops. Read a high TGI as lower sensitivity of the cells.
